Experimental data taken from the supplement of paper PMC6470124.

Assays:
[1] = absolute recovery over mixed-bed multilayer solid-phase extraction; higher = better recovery; conditions: enrichment method: SPE
How it was run: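 Elution from a three-layer mixed-bed cartridge used basic followed by acidic ethyl acetate/methanol, after loading either 1000 mL of unfiltered nanopure water or 100–250 mL of wastewater that had been set to pH 6.5 and glass-fibre filtered. Standards went in before or after extraction, or were left out, at 200 ng/L (water) or 1000 ng/L (wastewater), with class exceptions. Internal standards were added afterwards, and measurement was by liquid chromatography with high-resolution tandem mass spectrometry in both ionisation modes. For absolute recovery, background-corrected response ratios of pre-spiked samples were compared with those of post-spiked samples and averaged over at least two replicates.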

[2] = LC retention time (Atlantis T3, 5-95% MeOH gradient, 0.1% formic acid); higher = more retained / less polar
How it was run: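 Retention times refer to reference standards measured by liquid chromatography with high-resolution tandem mass spectrometry. Separation was on an Atlantis T3 C18 column (3 × 150 mm, 3 μm) at 0.3 mL/min with a 5 to 95% methanol gradient over 17.5 min, both solvents carrying 0.1% formic acid. Positive and negative electrospray were run separately on a QExactive Plus, and TraceFinder peak integration (5 ppm tolerance, at least three points per peak) was reviewed by hand.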

[3] = absolute recovery over vacuum-assisted evaporative concentration; higher = better recovery; conditions: enrichment method: VEC
How it was run: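 Standards were spiked into water samples before concentration, after concentration or not at all; volumes were 6 mL influent, 15 mL effluent and 60 mL surface or nanopure water. Spiking levels were 200 ng/L for nanopure and surface water and 1000 ng/L for wastewater, adjusted by class and compound. After evaporation at 55 °C and 20 mbar to about 0.3 mL, samples were brought to 0.4 mL, centrifuged, given internal standards and analysed by LC-HRMS/MS. Absolute recovery equals (response ratio pre − unspiked)/(post − unspiked) × 100, based on averages of ≥ 2 replicates.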

Structure (SMILES)	absolute recovery ([1]; nanopure water)	absolute recovery ([1]; surface water)	absolute recovery ([1]; wastewater effluent)	absolute recovery ([1]; wastewater influent)	LC retention time [2]	absolute recovery ([3]; wastewater effluent)	absolute recovery ([3]; wastewater influent)
CCN(CC)C(=O)C(C)Oc1cccc2ccccc12 (stereo not drawn) [Napropamid]	96.6%	90.8%	89.3%	96.1%	20.3 min	88.4%	90.9%
COc1ccc2cc(C(C)C(=O)[O-])ccc2c1 (stereo not drawn) [Naproxen]	96.1%	96.5%	92.8%		19.3 min	109%	
COc1ccc(CCC(=O)c2c(O)cc(OC3OC(CO)C(O)C(O)C3OC3OC(C)C(O)C(O)C3O)cc2O)cc1O (stereo not drawn) [Neohesperidin-dihydrochalcon]	71.4%	78.7%	90.1%	85%	16.3 min	51.7%	49.7%
COC(=O)C(Cc1ccccc1)NC(=O)C(CC(=O)[O-])[NH2+]CCC(C)(C)C (stereo not drawn) [Neotam]	91.9%	91.3%	93.8%	95.2%	17.2 min	89.2%	81.8%
COc1cc(OC)nc(NC(=O)[N-]S(=O)(=O)c2ncccc2C(=O)N(C)C)n1 [Nicosulfuron]	95.8%	97.3%	96.2%	95.7%	16.9 min	103%	102%
C[NH+]1CCCC1c1cccnc1 (stereo not drawn) [Nicotine]	35.1%	27.7%	47.9%	52.5%	11.1 min	76.9%	79.1%
C#CC[NH2+]C(C)Cc1ccccc1 (stereo not drawn) [Nordeprenyl]	74.8%	84.7%	80.2%	78.3%	11.5 min	38.9%	11.4%
CCn1cc(C(=O)[O-])c(=O)c2cc(F)c(N3CC[NH2+]CC3)cc21 [Norfloxacin]	75.9%	68.2%	74%	74.9%	11.5 min	104%	
c1ccc2c(c1)Cc1ccccc1N1CC[NH2+]CC21 (stereo not drawn) [Normianserin]	79.1%	95.2%	83.6%	85.6%	14.8 min	94.1%	84.1%
c1cncc(C2CCC[NH2+]2)c1 (stereo not drawn) [Nornicotine]	65.4%		47.9%	43.6%	4.38 min	111%	118%
COc1ccc2c(c1OC)C(=O)OC2C1c2c(cc3c(c2OC)OCO3)CC[NH+]1C (stereo not drawn) [Noscapin]	80.1%	89.2%	91.8%	103%	12.8 min	85.7%	89.8%
C[NH+](C)CC(c1ccc(O)cc1)C1(O)CCCCC1 (stereo not drawn) [O-Desvenlafaxin]	97.4%	89.9%	90.6%	77.7%	12 min		97.9%
C[NH+](C)CCC=C1c2ccccc2COc2ccc(CC(=O)[O-])cc21 [Olopatadine]	82.8%	86.5%	91.2%	84.9%	14.9 min	100%	102%
CCCN(CCC)c1c([N+](=O)[O-])cc(S(N)(=O)=O)cc1[N+](=O)[O-] [Oryzalin]	97%	102%	94%	109%	20.2 min	105%	91.7%
CCC(CC)OC1C=C(C(=O)[O-])CC([NH3+])C1NC(C)=O (stereo not drawn) [Oseltamivir-carboxylat]	75.9%	24.7%	44.2%	60.1%	12.5 min	105%	105%
CCOC(=O)C1=CC(OC(CC)CC)C(NC(C)=O)C([NH3+])C1 (stereo not drawn) [Oseltamivir]	69.9%	77.5%	77.3%	80.4%	14.7 min	101%	107%
Cc1onc(-c2ccccc2)c1C(=O)NC1C(=O)N2C1SC(C)(C)C2C(=O)[O-] (stereo not drawn) [Oxacillin]	61.2%	10.8%	21.2%	33.4%	18.4 min	91.3%	
Cc1cc(C)nc(NC(=O)[N-]S(=O)(=O)c2ccccc2C(=O)OC2COC2)n1 [Oxasulfuron]	107%	93.3%	93%	83.6%	16.5 min	111%	103%
O=C1Nc2ccc(Cl)cc2C(c2ccccc2)=NC1O (stereo not drawn) [Oxazepam]	99.5%	98.7%	91.9%	93.9%	18.4 min	104%	98.7%
NC(=O)N1c2ccccc2CC(=O)c2ccccc21 [Oxcarbazepin]	84.4%	84.7%	82.7%	83.7%	16.4 min	87.8%	78.5%
C=CCOc1ccccc1OCC(O)C[NH2+]C(C)C (stereo not drawn) [Oxprenolol]	78.4%	82.4%	85.9%	87.2%	13.4 min	105%	107%
CC[NH+](CC)CC#CCOC(=O)C(O)(c1ccccc1)C1CCCCC1 (stereo not drawn) [Oxybutynin]	92.8%	75.1%	89.1%		16.2 min	90.1%	136%

Structure (SMILES)	absolute recovery ([1]; nanopure water)	absolute recovery ([1]; surface water)	absolute recovery ([1]; wastewater effluent)	absolute recovery ([1]; wastewater influent)	LC retention time [2]	absolute recovery ([3]; wastewater effluent)	absolute recovery ([3]; wastewater influent)
CCOc1cc(Oc2ccc(C(F)(F)F)cc2Cl)ccc1[N+](=O)[O-] [Oxyfluorfen]	93.8%	83.9%	82.2%	108%	21 min	87.1%	92.7%
O=C([O-])C(F)(F)C(F)(F)C(F)(F)F [PFBA]	95.9%	42.8%	90.2%	84.9%	18.6 min	96.7%	86.3%
CC(=O)Nc1ccc(O)cc1 [Paracetamol (=3-Acetamidophenol)]	76.7%		79.1%		10.3 min	101%	
Nc1nc(=O)c2ncn(CCC(CO)CO)c2[nH]1 [Penciclovir]	84.2%	78.3%	83%	91.8%	7.67 min	97.1%	104%
CCCC(Cn1cncn1)c1ccc(Cl)cc1Cl (stereo not drawn) [Penconazol]	98.5%	97.1%	100%	87.3%	20.9 min	105%	105%
O=C(Nc1ccccc1)N(Cc1ccc(Cl)cc1)C1CCCC1 [Pencycuron]	84.2%	110%		80.4%	21.4 min	117%	124%
CCCC(NC(C)C(=O)N1C(C(=O)[O-])CC2CCCCC21)C(=O)OCC (stereo not drawn) [Perindopril]	97.7%	88.8%	91.5%	138%	15.5 min	95%	96.1%
CCOCCN(C(=O)CCl)C(=C(C)C)c1ccccc1 [Pethoxamid]	95.5%	85.7%	86.7%	99.6%	20.3 min	87.2%	92.5%
Cc1cc(=O)n(-c2ccccc2)n1C [Phenazon (=Antipyrin)]	83.8%	93.4%	91.4%	95.5%	13.3 min	106%	100%
C[N+](C)([O-])CCC(c1ccccc1)c1ccccn1 (stereo not drawn) [Pheniramine-N-oxide]	94.5%	93.4%	88.3%	89%	11.6 min	105%	94.2%
C[NH+](C)CCC(c1ccccc1)c1ccccn1 (stereo not drawn) [Pheniramine]	87.9%	93.7%	91.7%	86.8%	11 min	113%	87.2%
O=C1NC(=O)C(c2ccccc2)(c2ccccc2)N1 [Phenytoin]	90.8%				17 min	98.4%	112%
CCC(C)OC(=O)N1CCCCC1CCO (stereo not drawn) [Picaridin (=Icaridin)]	97.2%	91.8%	93.9%	96.2%	19 min	94.9%	99.4%
COC=C(C(=O)OC)c1ccccc1COc1cccc(C(F)(F)F)n1 [Picoxystrobin]	94.1%	94.9%	99.7%	81.3%	20.3 min	94.2%	121%
CCc1ccc(CCOc2ccc(CC3SC(=O)[N-]C3=O)cc2)nc1 (stereo not drawn) [Pioglitazone]	93.3%	98.1%	104%	90.7%	14.3 min	107%	104%
CCCCOCCOCCOCc1cc2c(cc1CCC)OCO2 [Piperonyl-butoxide]	75.2%	66.7%	88.9%		22.7 min	125%	88.2%
Cc1nc(N(C)C)nc(OC(=O)N(C)C)c1C [Pirimicarb]	99.4%	94.3%	93.5%	94.1%	14.1 min	102%	98.7%
CCCCOc1ccc(OCCC[NH+]2CCOCC2)cc1 [Pramoxine]	87.7%	95.3%	89.4%	84%	15.1 min	105%	91%
CCC(C)C(=O)OC1CC(O)C=C2C=CC(C)C(CCC(O)CC(O)CC(=O)[O-])C21 (stereo not drawn) [Pravastatin]	92.4%	91.2%	94%	95.1%	18.4 min	99.2%	103%
O=C(C1CCCCC1)N1CC(=O)N2CCc3ccccc3C2C1 (stereo not drawn) [Praziquantel]	98.3%	86.5%	87.2%	98.8%	19.5 min	88.4%	89.8%
CC12C=CC(=O)C=C1CCC1C2C(O)CC2(C)C1CCC2(O)C(=O)CO (stereo not drawn) [Prednisolon]	88%	82.7%	82.1%	91.4%	18 min	104%	63.1%
CC12C=CC(=O)C=C1CCC1C2C(=O)CC2(C)C1CCC2(O)C(=O)CO (stereo not drawn) [Prednisone]	81%	78.3%	76.4%	87.1%	17.3 min	96.6%	58.2%
